Results as given in ChEMBL document CHEMBL4477222, “Discovery of Novel Thiophene-Based, Thumb Pocket 2 Allosteric Inhibitors of the Hepatitis C NS5B Polymerase with Improved Potency and Physicochemical Profiles” (J Med Chem, 2016).
Converted amounts (≈) assume the structure as drawn. The source made the active and inactive calls. The rule behind the calls is not given here.

Experiments:
[1] = AUC (0 to infinity) in Sprague-Dawley rat at 1 mg/kg, iv through bolus administration; assay type: ADME, organism-based; design: dose 1 mg/kg, route intravenous, time infinity; conditions: in vivo
[2] = AUC (0 to infinity) in Fischer 344 rat at 3 mg/kg, po; assay type: ADME, organism-based; design: dose 3 mg/kg, route oral, time infinity; conditions: in vivo
[3] = Metabolic stability in dog liver microsomal S9 fraction assessed as compound remaining at 1 uM after 2 hrs in presence of NADPH; assay type: ADME, subcellular, Canis lupus familiaris; conditions: read-out: Stability
[4] = test system: NS3 protease (Hepatitis C virus subtype 1b), Q0ZMF1 [A156S]; experiment: Inhibition of telaprevir-resistant HCV NS3 protease A156S mutant; conditions: Hepacivirus hominis
[5] = test system: NS3 (Hepatitis C virus), A3EZJ3 [R155K,V36M]; experiment: Inhibition of telaprevir-resistant HCV NS3 protease V36M/R155K double mutant; conditions: Hepacivirus hominis
[6] = molecular target: RNA-directed RNA polymerase (Hepacivirus hominis, UniProt O39930, M423T); experiment: Inhibition of HCV genotype 1a NS5B M423T mutant; design: species or system Hepatitis C virus subtype 1a
[7] = test system: Nonstructural protein 5A (Hepatitis C virus), Q5L478 [UNDEFINED MUTATION]; experiment: Inhibition of BMS-790052-resistant HCV genotype 1a NS5A P32L mutant; conditions: Hepatitis C virus subtype 1a
[8] = test system: Hepatitis C virus subtype 1b; experiment: Inhibition of HCV genotype 1b NS5B assessed as suppression of sub-genomic RNA levels after 96 hrs in presence of telaprevir by luciferase reporter gene assay
[9] = Protein binding in monkey plasma at 1 uM; assay type: ADME, cell-free, Macaca mulatta; conditions: rhesus monkey, read-out: PPB (converted)
[10] = Chemical stability of compound under long term storage in solution; assay type: physicochemical
[11] = Half life in Fischer 344 rat at 3 mg/kg; assay type: ADME, organism-based; conditions: in vivo
[12] = Protein binding in dog plasma at 1 uM; assay type: ADME, cell-free, Canis lupus familiaris; conditions: read-out: PPB (converted)
[13] = Metabolic stability in monkey liver microsomal S9 fraction assessed as compound remaining at 1 uM after 2 hrs in presence of NADPH/UDPGA; assay type: ADME, subcellular, Macaca mulatta; conditions: rhesus monkey, read-out: Stability
[14] = Protein binding in dog liver at 1 uM; assay type: ADME, tissue-based, Canis lupus familiaris; conditions: read-out: PB (converted)
[15] = Volume of distribution at steady state in Sprague-Dawley rat at 1 mg/kg, iv through bolus administration; assay type: ADME, organism-based; conditions: in vivo, read-out: Vdss
[16] = test system: Nonstructural protein 5A (Hepatitis C virus), Q5L478 [UNDEFINED MUTATION]; experiment: Inhibition of BMS-790052-resistant HCV genotype 1a NS5A L31M mutant; conditions: Hepatitis C virus subtype 1a
[17] = Efflux ratio of permeability from basolateral to apical side over apical to basolateral side in human Caco2 cells; assay type: ADME, cell-based; conditions: Caco-2
[18] = Cytotoxicity against human Huh7ET cells assessed as reduction in cell viability after 4 days; assay type: cell-based
[19] = molecular target: RNA-directed RNA polymerase (Hepacivirus hominis, UniProt O39930, L419M); experiment: Inhibition of HCV genotype 1a NS5B L419M mutant; design: species or system Hepatitis C virus subtype 1a
[20] = Metabolic stability in rat liver microsomal S9 fraction assessed as compound remaining at 1 uM after 2 hrs in presence of NADPH/UDPGA; assay type: ADME, subcellular; conditions: read-out: Stability
[21] = Drug uptake in Sprague-Dawley rat liver at 10 mg/kg, po administered as single dose; assay type: ADME, organism-based; conditions: in vivo
[22] = molecular target: RNA-directed RNA polymerase (Hepacivirus hominis, UniProt O39930, M423V); experiment: Inhibition of HCV genotype 1a NS5B M423V mutant; design: species or system Hepatitis C virus subtype 1a
[23] = Half life in monkey at 1 mg/kg, iv through bolus administration; assay type: ADME, organism-based, Macaca mulatta; conditions: rhesus monkey, in vivo
[24] = Protein binding in rat liver at 1 uM; assay type: ADME, tissue-based; conditions: read-out: PB (converted)
[25] = AUC (0 to infinity) in Sprague-Dawley rat at 3 mg/kg, po; assay type: ADME, organism-based; design: dose 3 mg/kg, route oral, time infinity; conditions: in vivo
[26] = Solubility of the compound in FaSSIF at pH 6.3; assay type: physicochemical
[27] = Metabolic stability in human liver microsomal S9 fraction assessed as compound remaining at 1 uM after 2 hrs in presence of NADPH/UDPGA; assay type: ADME, subcellular; conditions: read-out: Stability
[28] = Drug level in rat plasma; assay type: ADME, cell-free
[29] = Metabolic stability in human liver microsomal S9 fraction assessed as compound remaining at 1 uM after 2 hrs in presence of NADPH; assay type: ADME, subcellular; conditions: read-out: Stability
[30] = molecular target: DNA polymerase alpha catalytic subunit (Homo sapiens) (UniProt P09884); experiment: Inhibition of human DNA polymerase-alpha by fluorescence/radiometric assay
[31] = Metabolic stability in monkey hepatocytes assessed as compound remaining at 10 uM after 2 hrs; assay type: ADME, cell-based, Macaca mulatta, Hepatocyte; conditions: rhesus monkey, read-out: Stability
[32] = Ratio of drug level in plasma to lungs in Sprague-Dawley rat at 10 mg/kg, po; assay type: ADME, organism-based, Lung/Plasma; conditions: in vivo
[33] = Cmax in dog at 3 mg/kg, po; assay type: ADME, organism-based, Canis lupus familiaris; design: dose 3 mg/kg, route oral; conditions: in vivo
[34] = molecular target: Cytochrome P450 1A2 (Homo sapiens, UniProt P05177); experiment: Induction of CYP1A2 (unknown origin) in hepatocytes; assay type: ADME, cell-based
[35] = Clearance in dog at 1 mg/kg, iv through bolus administration; assay type: ADME, organism-based, Canis lupus familiaris; conditions: in vivo
[36] = Drug excretion in rat feces; assay type: ADME; conditions: in vivo
[37] = Protein binding in human plasma at 1 uM; assay type: ADME, cell-free; conditions: read-out: PPB (converted)
[38] = Solubility of the compound in FeSSIF at pH 5.2; assay type: physicochemical
[39] = Protein binding in human liver at 1 uM; assay type: ADME, tissue-based; conditions: read-out: PB (converted)
[40] = Drug excretion in rat bile; assay type: ADME, tissue-based; conditions: in vivo
[41] = AUC (0 to infinity) in dog at 3 mg/kg, po; assay type: ADME, organism-based, Canis lupus familiaris; design: dose 3 mg/kg, time infinity, route oral; conditions: in vivo
[42] = AUC (0 to infinity) in dog at 1 mg/kg, iv through bolus administration; assay type: ADME, organism-based, Canis lupus familiaris; design: dose 1 mg/kg, route intravenous, time infinity; conditions: in vivo
[43] = Permeability from basolateral to apical side in human Caco2 cells; assay type: ADME, cell-based; conditions: Caco-2, read-out: permeability
[44] = test system: Nonstructural protein 5A (Hepatitis C virus), Q5L478 [UNDEFINED MUTATION]; experiment: Inhibition of BMS-790052-resistant HCV genotype 1a NS5A Y93N mutant; conditions: Hepatitis C virus subtype 1a
[45] = AUC (0 to infinity) in Fischer 344 rat at 1 mg/kg, iv through bolus administration; assay type: ADME, organism-based; design: dose 1 mg/kg, time infinity, route intravenous; conditions: in vivo
[46] = Volume of distribution in steady state in dog at 1 mg/kg, iv through bolus administration; assay type: ADME, organism-based, Canis lupus familiaris; conditions: in vivo, read-out: Vdss
[47] = Oral bioavailability in Fischer 344 rat at 3 mg/kg; assay type: ADME, organism-based; conditions: in vivo
[48] = Permeability from apical to basolateral side in human Caco2 cells; assay type: ADME, cell-based; conditions: Caco-2, read-out: permeability
[49] = test system: Nonstructural protein 5A (Hepatitis C virus), Q5L478 [UNDEFINED MUTATION]; experiment: Inhibition of BMS-790052-resistant HCV genotype 1a NS5A M28T mutant; conditions: Hepatitis C virus subtype 1a
[50] = test system: NS3 protease (Hepacivirus C), C1KIQ2 [R155T]; experiment: Inhibition of telaprevir-resistant HCV NS3 protease R155T mutant; conditions: Hepacivirus hominis
[51] = Protein binding in monkey liver at 1 uM; assay type: ADME, tissue-based, Macaca mulatta; conditions: rhesus monkey, read-out: PB (converted)
[52] = Volume of distribution in steady state in Fischer 344 rat at 1 mg/kg, iv through bolus administration; assay type: ADME, organism-based; conditions: in vivo, read-out: Vdss
[53] = Half life in dog at 3 mg/kg, po; assay type: ADME, organism-based, Canis lupus familiaris; conditions: in vivo
[54] = Drug uptake in Sprague-Dawley rat plasma at 10 mg/kg, po administered as single dose; assay type: ADME, organism-based; conditions: in vivo
[55] = test system: NS3 protease (Hepacivirus C), C1KIQ2 [A156T]; experiment: Inhibition of telaprevir-resistant HCV NS3 protease A156T mutant; conditions: Hepacivirus hominis
[56] = test system: Nonstructural protein 5A (Hepatitis C virus), Q5L478 [UNDEFINED MUTATION]; experiment: Inhibition of BMS-790052-resistant HCV genotype 1b NS5A Y93H mutant; conditions: Hepatitis C virus subtype 1b

Chain of DNA polymerase alpha catalytic subunit (Homo sapiens) (P09884 whole entry): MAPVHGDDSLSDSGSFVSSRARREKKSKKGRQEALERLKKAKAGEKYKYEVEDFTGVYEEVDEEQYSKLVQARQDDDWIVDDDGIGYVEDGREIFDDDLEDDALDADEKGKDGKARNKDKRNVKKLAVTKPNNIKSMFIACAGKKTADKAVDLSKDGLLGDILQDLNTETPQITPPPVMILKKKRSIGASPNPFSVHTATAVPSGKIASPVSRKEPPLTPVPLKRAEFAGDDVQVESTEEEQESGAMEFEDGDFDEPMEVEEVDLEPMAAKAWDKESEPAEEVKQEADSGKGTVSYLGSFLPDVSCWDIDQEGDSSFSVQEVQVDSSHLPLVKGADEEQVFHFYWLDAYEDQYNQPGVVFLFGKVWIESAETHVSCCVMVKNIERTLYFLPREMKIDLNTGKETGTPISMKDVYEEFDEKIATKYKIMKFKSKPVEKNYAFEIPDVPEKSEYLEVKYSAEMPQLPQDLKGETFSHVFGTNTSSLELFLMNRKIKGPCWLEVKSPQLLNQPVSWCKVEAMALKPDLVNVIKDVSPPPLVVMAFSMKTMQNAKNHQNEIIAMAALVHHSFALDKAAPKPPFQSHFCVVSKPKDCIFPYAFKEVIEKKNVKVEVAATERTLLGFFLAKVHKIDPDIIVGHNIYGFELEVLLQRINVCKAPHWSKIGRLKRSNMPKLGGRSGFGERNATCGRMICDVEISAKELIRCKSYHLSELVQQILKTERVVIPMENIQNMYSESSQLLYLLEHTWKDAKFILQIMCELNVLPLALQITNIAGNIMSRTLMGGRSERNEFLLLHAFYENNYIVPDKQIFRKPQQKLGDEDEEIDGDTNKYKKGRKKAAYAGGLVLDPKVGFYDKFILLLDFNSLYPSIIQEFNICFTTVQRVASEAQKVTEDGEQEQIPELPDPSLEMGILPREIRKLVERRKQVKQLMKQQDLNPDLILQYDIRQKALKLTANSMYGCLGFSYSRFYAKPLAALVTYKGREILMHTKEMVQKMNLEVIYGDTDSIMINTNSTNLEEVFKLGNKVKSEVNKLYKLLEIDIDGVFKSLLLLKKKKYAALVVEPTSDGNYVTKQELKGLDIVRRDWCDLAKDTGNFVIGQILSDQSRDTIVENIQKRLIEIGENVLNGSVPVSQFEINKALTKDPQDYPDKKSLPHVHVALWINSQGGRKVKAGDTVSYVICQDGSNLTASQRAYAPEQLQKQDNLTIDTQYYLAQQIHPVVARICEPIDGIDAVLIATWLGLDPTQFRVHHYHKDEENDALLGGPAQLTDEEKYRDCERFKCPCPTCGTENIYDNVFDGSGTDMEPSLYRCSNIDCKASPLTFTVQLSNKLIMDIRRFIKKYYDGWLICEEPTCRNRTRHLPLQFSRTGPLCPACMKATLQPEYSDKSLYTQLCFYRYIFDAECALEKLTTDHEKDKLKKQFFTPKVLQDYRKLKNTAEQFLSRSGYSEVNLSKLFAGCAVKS
Chain of Cytochrome P450 1A2 (P05177 whole entry): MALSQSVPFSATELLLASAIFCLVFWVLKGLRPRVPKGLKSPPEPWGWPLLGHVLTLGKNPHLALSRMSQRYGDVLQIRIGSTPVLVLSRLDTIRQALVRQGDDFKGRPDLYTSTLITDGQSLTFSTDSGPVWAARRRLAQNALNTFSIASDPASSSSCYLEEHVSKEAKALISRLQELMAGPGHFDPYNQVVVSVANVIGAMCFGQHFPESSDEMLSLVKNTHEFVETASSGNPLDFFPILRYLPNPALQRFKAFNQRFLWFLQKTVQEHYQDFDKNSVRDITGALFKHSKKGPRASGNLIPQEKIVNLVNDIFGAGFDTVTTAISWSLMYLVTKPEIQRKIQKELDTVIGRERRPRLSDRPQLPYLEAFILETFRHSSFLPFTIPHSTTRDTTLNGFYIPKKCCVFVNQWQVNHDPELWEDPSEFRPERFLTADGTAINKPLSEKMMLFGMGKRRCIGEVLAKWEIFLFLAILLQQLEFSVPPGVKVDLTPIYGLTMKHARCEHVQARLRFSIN

Work on CC(C)(C)C#Cc1cc(N(CC(=O)N2CCOCC2)C(=O)[C@H]2CC[C@H](C)CC2)c(C(=O)O)s1 yielded an AUC [1] of 4270 ng·h/mL, an AUC(0-inf) [2] of 310 ng·h/mL and a remaining at 2 h, 1 µM [3] of 82%. The inhibition [4] was “Active”, the inhibition [5] was “Active” and the EC50 [6] was 280 nM. The inhibition [7] was “Active”, the inhibition [8] was “Active” and the fraction unbound at 1 µM [9] was 0.023. The Stability [10] was “Stable”, the half-life [11] was 2.1 h and the fraction unbound at 1 µM [12] was 0.025. The remaining at 2 h, 1 µM [13] was 14%, the fraction unbound at 1 µM [14] was 0.14 and the Vd [15] was 1.55 L/kg. The inhibition [16] was “Active”, the efflux ratio [17] was 14 and the CC50 at 96 h [18] was over 20000 nM. The EC50 [19] was 240 nM, the remaining at 2 h, 1 µM [20] was 79% and the Drug uptake [21] was “Active”. The EC50 [22] was 120 nM, the half-life [23] was 2.2 h and the fraction unbound at 1 µM [24] was 0.162. For the same molecule, the AUC(0-inf) [25] was 8860 ng·h/mL, the solubility [26] was 1700 µg/mL (≈ 3580 µM) and the remaining at 2 h, 1 µM [27] was 73%. For the same molecule, the Drug uptake [28] was “Active”, the remaining at 2 h, 1 µM [29] was 76% and the inhibition [30] was “inactive”. For the same molecule, the remaining at 2 h, 10 µM [31] was 30%, the Ratio [32] was 10 and the Cmax [33] was 1550 ng/mL. For the same molecule, the Activity [34] was “Not Active”, the clearance [35] was 10.1 mL/min/kg and the Drug excretion [36] was “Metabolite_Detected”. It also gave a fraction unbound at 1 µM [37] of 0.014, a solubility [38] of 800 µg/mL (≈ 1690 µM) and a fraction unbound at 1 µM [39] of 0.153. For the same molecule, the Drug excretion [40] was “Metabolite_Detected”, the AUC(0-inf) [41] was 2340 ng·h/mL and the AUC(0-inf) [42] was 1360 ng·h/mL. For the same molecule, the Papp B→A [43] was 9.8 ×10⁻⁶ cm/s, the inhibition [44] was “Active” and the AUC(0-inf) [45] was 1580 ng·h/mL. For the same molecule, the Vd [46] was 1.57 L/kg, the bioavailability [47] was 6.5% and the Papp A→B [48] was 0.7 ×10⁻⁶ cm/s. For the same molecule, the inhibition [49] was “Active”, the inhibition [50] was “Active” and the fraction unbound at 1 µM [51] was 0.093. The Vd [52] was 0.86 L/kg, the half-life [53] was 6.6 h and the Drug uptake [54] was “Active”. For the same molecule, the inhibition [55] was “Active” and the inhibition [56] was “Active”.
